Test results reported in publication PMC6100603, “Exploring the Dual Inhibitory Activity of Novel Anthranilic Acid Derivatives towards α-Glucosidase and Glycogen Phosphorylase Antidiabetic Targets: Design, In Vitro Enzyme Assay, and Docking Studies” (Molecules : A Journal of Synthetic Chemistry and Natural …, 2018).
Values joined by “and” are separate entries in the source; they are usually repeats but may differ in a detail not shown here. Identical values can stand only once.

Experiments:
[1] = target: T1, Rabbit muscle glycogen phosphorylase a (Oryctolagus cuniculus, UniProt P00489); assay: Glycogen phosphorylase enzyme assay (phosphate release, malachite green); assay type: biochemical; details: mean of three determinations
T1 construct: purchased Abcam
T1 sequence (P00489 2-843 limits assumed): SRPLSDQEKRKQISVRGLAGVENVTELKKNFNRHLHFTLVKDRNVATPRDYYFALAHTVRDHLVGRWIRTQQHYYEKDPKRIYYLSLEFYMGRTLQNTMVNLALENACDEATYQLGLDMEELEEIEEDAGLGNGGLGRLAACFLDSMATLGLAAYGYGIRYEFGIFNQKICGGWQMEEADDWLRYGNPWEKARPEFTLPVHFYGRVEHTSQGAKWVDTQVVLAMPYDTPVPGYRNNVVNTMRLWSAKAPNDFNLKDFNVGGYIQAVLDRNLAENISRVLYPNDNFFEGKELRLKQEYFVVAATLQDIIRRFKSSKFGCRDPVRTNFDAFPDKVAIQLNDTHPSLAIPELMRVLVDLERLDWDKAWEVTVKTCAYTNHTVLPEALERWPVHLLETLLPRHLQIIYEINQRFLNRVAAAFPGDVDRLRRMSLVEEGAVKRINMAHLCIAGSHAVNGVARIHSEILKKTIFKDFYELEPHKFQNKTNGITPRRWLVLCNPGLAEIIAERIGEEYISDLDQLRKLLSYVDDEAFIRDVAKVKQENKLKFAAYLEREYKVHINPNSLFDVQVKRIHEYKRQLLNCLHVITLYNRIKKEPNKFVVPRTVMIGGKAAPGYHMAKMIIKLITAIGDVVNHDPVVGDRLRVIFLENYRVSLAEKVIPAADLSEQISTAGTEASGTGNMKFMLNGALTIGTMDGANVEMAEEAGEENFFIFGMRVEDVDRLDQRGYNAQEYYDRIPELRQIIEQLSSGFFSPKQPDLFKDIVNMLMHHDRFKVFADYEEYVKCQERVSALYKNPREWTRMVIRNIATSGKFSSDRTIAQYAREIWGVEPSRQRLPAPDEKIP
Method: Rabbit muscle glycogen phosphorylase a (from Abcam, 0.475 mg/ mL) activity was measured in the direction of glycogen synthesis by the release of phosphate from glucose-1-phosphate using a 384-well plate at 22 °C in […] of buffer containing 50 mM Hepes (pH 7.2), 100 mM KCl, 2.5 mM EGTA, 2.5 Mm MgCl2, 0.25 Mm glucose-1-phosphate, and 1 mg/mL glycogen with a 30-min incubation time. Phosphate was measured at 620 nm, 5 minutes after the addition of […] of 1 MHCl containing 10 mg/mL ammonium molybdate and 0.38 mg/mL malachite green. Test compounds were added to the assay in […] of 14% DMSO. Compounds were tested against a deoxynojirimycin hydrochloride (Abcam) standard in 11 point concentration response curve in duplicate on two separate occasions. Data were analyzed using GraphPad Prism v.4.03, GraphPad Software, (La Jolla, CA, USA).
A nonlinear regression (curve fit) analysis with a sigmoidal dose response equation (variable slope) was applied to generate IC50 and hill slope values. […] Compounds were screened with maximal concentrations of […]. The assay was carefully monitored for signs of compound insolubility. The results are presented as mean values from three determinations.

[2] = system: Sprague-Dawley (SD) rats with streptozocin-induced diabetes; assay: In vivo antidiabetic screening, blood glucose level in STZ-induced diabetic rats; set-up: species or system rat; details: for Blood Glucose Level, Reading 1: 15 h fasting followed by 5-mg meal, before treatment; for Blood Glucose Level, Fasting: after fasting for 15 h, pretreatment; for Blood Glucose Level, Reading 2: second day, after oral treatment 40 mg/100 g body weight followed by 5-mg meal
Method: The compound (7b) was tested on Sprague-Dawley (SD) rats for the effect on the blood glucose level, as described in the experimental Section 3.8, and the results are reported in (Table 2) and (Figure 3). Blood glucose levels were measured after fasting for 15 h (fasting reading), followed by the administration of a 5-mg meal (reading 1). Moreover, a second day reading after treatment with normal saline, acarbose, or (7b) compound blood glucose level (reading 2) followed by a 5-mg meal, was measured. […] In addition, the blood glucose level after 15 h fasting followed by a meal of 5 mg (reading 1) was compared to the blood glucose levels under the same conditions, and following the administration of normal saline, acarbose or compound (7b). For the control non-diabetic non-treated group and the diabetic non- treated group, no significant difference between (readings 1 and 2) was shown. For the group of rats treated with acarbose or compound (7b) one hour before a meal, blood glucose levels decreased from 147 ± 2 to 136 ± 3.28 and 120 ± 0.88 mg/dL to 116 ± 0.57, respectively. […] Twenty male Sprague–Dawley (SD) rats were maintained in an air-conditioned room (25 °C) at a constant humidity (55–60%). All rats were provided with a standard rat diet containing 60% carbohydrate (w/w), 2% fat (w/w), 17.5% protein (w/w), 8% fiber (w/w), and water ad libitum. The experiments were performed in accordance with the internationally accepted standard ethical guidelines for laboratory animal use and care, as described in the European Community guidelines. The Institutional Animal Ethics Committee of Al-Azhar University approved the study protocols (approval No: 409/432, 3/2018). Diabetes was induced in 12 Sprague–Dawley (SD) male rats by a single intraperitoneal injection of 40 mg/kg streptozocin (STZ) dissolved in 0.1 M/L citrate buffer at a pH of 4.5. Three rats were injected with normal saline and vehicle only to serve as negative controls. The remaining diabetic rats (nine) were identified by an increase in blood glucose more than 200 ± 10 mg/dL after one week. Blood glucose levels were measured using One Touch Ultra 2 glucometer (Lifescan inc., Wayne, USA) every week for the following two weeks to confirm the diabetic status. Rats were 6–8 weeks of age and the average weight when starting the experiment was 200 ± 20 g. Twelve rats were randomly assigned to four groups. Group 1: non-diabetic non-treated (control). Group 2: Diabetic non-treated. Group 3: Diabetic and administrated acarbose before meals. Group 4: Diabetic and administrated our new compound before a meal. Briefly; the first group was injected with an IP vehicle only. The other three groups were injected with streptozocin (STZ) and developed diabetes. The second group was diabetic and untreated. The third group was diabetic rats treated with acarbose at 40 mg per 100 g body weight 30 min. before meal using oral tube. The fourth group administrated 40 mg/100 g body weight of the test compound (7b). Rats were fasted over 15 h and blood sugar levels were measured (pretreatment). For each rat, 5 mg standard rat diet was supplied to each rat and blood glucose levels were measured to detect increases after 1 hour. Rats were fed again with the same amount after 8 h. Food was removed to allow animals to fast again for 15 h. On the following day, groups 1 and two were not given any treatment, while group 3 rats were given acarbose (positive control) and group 4 were given the test compound (7b). Blood glucose levels were measured in tail vein blood samples taken from fasting rats (time point 0), then designated groups are fed either acarbose or the test compound, suspended in PBS and delivered using an oral tube. After half an hour, the rats were given five mg. Blood samples were taken after 1 hour. Blood glucose was expected to rise after meal and the effect of the drugs was evaluated according to their abilities to control post-meal excursions.

[3] = target: α-Glucosidase from Saccharomyces cerevisiae; assay: α-Glucosidase inhibition assay (spectrophotometric, p-nitrophenyl-α-D-glucopyranoside); assay type: biochemical; details: mean ± spread, triplicate
Method: α-Glucosidase inhibition assay was performed spectrophotometrically. α-Glucosidase from Saccharomyces cerevisiae (Abcam, Cambridge, UK) was dissolved in phosphate buffer (pH 6.8, 50 mM). Test compounds were dissolved in DMSO. In 96-well microtiter plates, 20 µL of test sample, 20 µL of enzyme (20 mU/mL) and 135 µL of buffer were added and incubated for 15 minutes at 37 °C. After incubation, 25 µL of p-nitrophenyl-α-D-glucopyranoside (2 mM, Abcam) was added and change in absorbance was monitored for 20 min at 400 nm. Test compound was replaced by DMSO (10% final) as control. Deoxynojirimycin hydrochloride (Abcam) was used as a standard inhibitor. The assays were done in triplicate. IC50 values were calculated from non-linear regression curve of percentage inhibition versus log compound concentration.

Compound OC[C@H]1NC[C@H](O)[C@@H](O)[C@@H]1O [1-Deoxynojirimycin, reference compound] has an IC50 [1] of 55.6 ± 110 nM.

In the case of C[C@H]1O[C@H](O[C@H]2[C@H](O)[C@@H](O)[C@@H](O[C@H]3[C@H](O)[C@@H](O)C(O)O[C@@H]3CO)O[C@@H]2CO)[C@H](O)[C@@H](O)[C@@H]1N[C@H]1C=C(CO)[C@@H](O)[C@H](O)[C@H]1O (stereo partly shown) [Acarbose, reference compound], the “Blood Glucose Level, Reading 1” value [2] is reported as 147 ± 2.0 mg/dL, the “Blood Glucose Level, Reading 1” value ([2]; listed as acarbose) is reported as 147 ± 2 mg/dL and the “Blood Glucose Level, Fasting” value [2] is reported as 204 ± 4.5 mg/dL. For the same compound, the “Blood Glucose Level, Reading 2” value [2] was 136 ± 3.28 mg/dL.

With COC(=O)c1ccccc1NC(=O)c1ccccn1 [Compound 1, Methyl 2-(picolinamido)benzoate] the IC50 [3] was 735 nM and 736 nM, the melting point was 210 to 212 °C and the IC50 [1] was 541 ± 60 nM.

O=C(Nc1ccccc1C(=O)NCc1ccccc1)c1ccccn1 [Compound 3a, N-(2-(Benzylcarbamoyl)phenyl)picolinamide] gave an IC50 [3] of 89.6 nM and an IC50 [1] of 150 ± 70 nM.

COc1ccc(CNC(=O)c2ccccc2NC(=O)c2ccccn2)cc1 [Compound 3b, N-(2-((4-Methoxybenzyl)carbamoyl)phenyl)picolinamide] showed an IC50 [3] of 22.3 nM and a melting point of 225 to 227 °C.

With O=C(Nc1ccccc1C(=O)NCc1ccc(F)cc1)c1ccccn1 [Compound 3c, N-(2-((4-Fluorobenzyl)carbamoyl)phenyl)picolinamide] the IC50 [1] was 86.4 ± 20 nM.

O=C(Nc1ccccc1C(=O)NCc1ccc(Cl)cc1)c1ccccn1 [Compound 3d, N-(2-((4-Chlorobenzyl)carbamoyl)phenyl)picolinamide] gave an IC50 [3] of 94.7 nM, a melting point of 233 to 235 °C and an IC50 [1] of 177 ± 50 nM.

For Cc1ccc(CNC(=O)c2ccccc2NC(=O)c2ccccn2)cc1 [Compound 3e, N-(2-((4-Methylbenzyl)carbamoyl)phenyl)picolinamide], the melting point was 275 to 278 °C and the IC50 [1] was 262 ± 10 nM.

NS(=O)(=O)c1ccc(NC(=O)c2ccccc2NC(=O)c2ccccn2)cc1 [Compound 5a, N-(2-((4-Sulfamoylphenyl)carbamoyl)phenyl)picolinamide] gave an IC50 [3] of 47.7 nM.

O=C(Nc1ccccc1C(=O)Nc1ccc(S(=O)(=O)Nc2ccccn2)cc1)c1ccccn1 [Compound 5b, N-(2-((4-(N-(Pyridin-2-yl)sulfamoyl)phenyl)carbamoyl)phenyl)picolinamide] gave an IC50 [3] of 21.2 nM and an IC50 [1] of 16.6 nM.

Compound O=C(Nc1ccccc1C(=O)Nc1ccc(S(=O)(=O)Nc2nccs2)cc1)c1ccccn1 [Compound 5c, N-(2-((4-(N-(Thiazol-2-yl)sulfamoyl)phenyl)carbamoyl)phenyl)picolinamide] has an IC50 [3] of 12.5 ± 10 nM and a melting point of 217 to 219 °C.

NNC(=O)c1ccccc1NC(=O)c1ccccn1 [Compound 6, N-(2-(Hydrazinecarbonyl)phenyl)picolinamide] gave an IC50 ([3]; listed as 7) of 416 nM, a melting point of 210 to 212 °C and an IC50 [1] of 582 ± 580 nM.

Compound O=C(Nc1ccccc1C(=O)N/N=C/c1ccccc1)c1ccccn1 [Compound 7a, (E)-N-(2-(2-Benzylidenehydrazine-1-carbonyl)phenyl)picolinamide] has a melting point of 205 to 207 °C and an IC50 [1] of 208 nM.

With O=C(Nc1ccccc1C(=O)N/N=C/c1ccc(O)cc1O)c1ccccn1 [Compound 7b, (E)-N-(2-(2-(2,4-Dihydroxybenzylidene)hydrazine-1-carbonyl)phenyl)picolinamide] the IC50 [3] was 17.6 nM, the melting point was 215 to 217 °C and the “Effect on blood glucose level compared with reference drug” value ([2]; 40 mg/100 g body weight oral before meal) was “succeeded in decreasing the blood glucose level of diabetic rats better than the reference oral antidiabetic drug, acarbose”. For the same compound, the “Blood Glucose Level, Reading 1” value [2] was 120 ± 0.88 mg/dL, the “Blood Glucose Level, Fasting” value [2] was 207 ± 0.88 mg/dL and the “Blood Glucose Level, Reading 2” value [2] was 116 ± 0.57 mg/dL. It also gave an IC50 [1] of 13.7 ± 30 nM.

In the case of O=C(Nc1ccccc1C(=O)N/N=C/c1ccccn1)c1ccccn1 [Compound 7c, (E)-N-(2-(2-(Pyridin-2-ylmethylene)hydrazine-1-carbonyl)phenyl)picolinamide], the IC50 [3] is reported as 231 ± 570 nM, the melting point is reported as 225 to 227 °C and the IC50 [1] is reported as 86.4 nM.

Work on O=C(Nc1ccccc1C(=O)N/N=C/c1ccc(Cl)cc1Cl)c1ccccn1 [Compound 7d, (E)-N-(2-(2-(2,4-Dichlorobenzylidene)hydrazine-1-carbonyl)phenyl)picolinamide] yielded an IC50 [3] of 78.4 ± 50 nM and a melting point of 212 to 214 °C.
